Assay results taken from publication PMC6874179, “Development of Macrocycle Kinase Inhibitors for ALK2 Using Fibrodysplasia Ossificans Progressiva‐Derived Endothelial Cells” (JBMR Plus, 2019).

Key:
[1] = test system: caALK6; assay: BRE-LUC with constitutive active ALK6 in C2C12 cells; type: cell-based; details: compound 0.5μM 16 hours
Experimental: (§1) Compounds were added for 16 hours at 0.5μM before luciferase activity was measured.
(§2) For luciferase reporter assays, cells were seeded in 24-well plates and transfected with DharmaFECT Duo (Fisher Scientific, Landsmeer, The Netherlands), following the recommendations of the manufacturer. 48 hours after transfection the cells were harvested and lysed. […] Each transfection mixture was equalized with empty vector when necessary and every experiment was performed in triplicate.

[2] = target: T1, caALK1 (Homo sapiens, UniProt P37023, Q201D); assay: BRE-LUC with constitutive active ALK1 in C2C12 cells; type: cell-based; details: compound 0.5μM 16 hours
T1 construct: expressed in transfected cells; host or cells: C2C12 murine myofibroblast cells
Experimental: as §1, §2

[3] = target: T2, CDK4_cyclinD1 (Homo sapiens, UniProt P11802); assay: Proqinase Kinase profiling; type: biochemical; details: read-out: % inhibition at 100nM
T2 construct: purchased DiscoverX

[4] = target: T3, NEK9 (Homo sapiens, UniProt Q8TD19); assay: Proqinase Kinase profiling; type: biochemical; details: read-out: % inhibition at 100nM
T3 construct: purchased DiscoverX

[5] = target: T4, ALK/NPM1 (Homo sapiens, UniProt P06748+Q9UM73); assay: Proqinase Kinase profiling; type: biochemical; details: read-out: % inhibition at 100nM
T4 construct: purchased DiscoverX

[6] = target: T5, CAMK2G (Homo sapiens, UniProt Q13555); assay: Proqinase Kinase profiling; type: biochemical; details: read-out: % inhibition at 100nM
T5 construct: purchased DiscoverX

[7] = target: T6, DDR2_T654M (Homo sapiens, UniProt Q16832, T654M); assay: Proqinase Kinase profiling; type: biochemical; details: read-out: % inhibition at 100nM
T6 construct: purchased DiscoverX

[8] = target: T7, MAP2K5 (Homo sapiens, UniProt Q13163); assay: Proqinase Kinase profiling; type: biochemical; details: read-out: % inhibition at 100nM
T7 construct: purchased DiscoverX

[9] = target: T8, BRSK2 (Homo sapiens, UniProt Q8IWQ3); assay: Proqinase Kinase profiling; type: biochemical; details: read-out: % inhibition at 100nM
T8 construct: purchased DiscoverX

[10] = target: T9, MAP2K7 (Homo sapiens, UniProt O14733); assay: Proqinase Kinase profiling; type: biochemical; details: read-out: % inhibition at 100nM
T9 construct: purchased DiscoverX

[11] = target: T10, DDR2_N456S (Homo sapiens, UniProt Q16832, N456S); assay: Proqinase Kinase profiling; type: biochemical; details: read-out: % inhibition at 100nM
T10 construct: purchased DiscoverX

[12] = target: T11, CDC7_DBF4 (Homo sapiens, UniProt O00311); assay: Proqinase Kinase profiling; type: biochemical; details: read-out: % inhibition at 100nM
T11 construct: purchased DiscoverX

[13] = target: T12, PKN3 (Homo sapiens, UniProt Q6P5Z2); assay: Proqinase Kinase profiling; type: biochemical; details: read-out: % inhibition at 100nM
T12 construct: purchased DiscoverX

[14] = target: T13, VRK2 (Homo sapiens, UniProt Q86Y07); assay: Proqinase Kinase profiling; type: biochemical; details: read-out: % inhibition at 100nM
T13 construct: purchased DiscoverX

[15] = target: T14, BUB1B (Homo sapiens, UniProt O60566); assay: Proqinase Kinase profiling; type: biochemical; details: read-out: % inhibition at 100nM
T14 construct: purchased DiscoverX

[16] = target: T15, ALK_F1174L/NPM1 (Homo sapiens, UniProt P06748+Q9UM73, F1174L); assay: Proqinase Kinase profiling; type: biochemical; details: read-out: % inhibition at 100nM
T15 construct: purchased DiscoverX

[17] = target: T16, CDK6_cyclinD3 (Homo sapiens, UniProt Q00534); assay: Proqinase Kinase profiling; type: biochemical; details: read-out: % inhibition at 100nM
T16 construct: purchased DiscoverX

[18] = target: T17, TTBK2 (Homo sapiens, UniProt Q6IQ55); assay: Proqinase Kinase profiling; type: biochemical; details: read-out: % inhibition at 100nM
T17 construct: purchased DiscoverX

[19] = target: T18, MLK4 (Homo sapiens, UniProt Q5TCX8); assay: Proqinase Kinase profiling; type: biochemical; details: read-out: % inhibition at 100nM
T18 construct: purchased DiscoverX

[20] = target: T19, SIK1 (Homo sapiens, UniProt P57059); assay: Proqinase Kinase profiling; type: biochemical; details: read-out: % inhibition at 100nM
T19 construct: purchased DiscoverX

[21] = target: T20, TTBK1 (Homo sapiens, UniProt Q5TCY1); assay: Proqinase Kinase profiling; type: biochemical; details: read-out: % inhibition at 100nM
T20 construct: purchased DiscoverX

[22] = target: T21, MAP2K4 (Homo sapiens, UniProt P45985); assay: Proqinase Kinase profiling; type: biochemical; details: read-out: % inhibition at 100nM
T21 construct: purchased DiscoverX

[23] = target: T22, PKMYT1 (Homo sapiens, UniProt Q99640); assay: Proqinase Kinase profiling; type: biochemical; details: read-out: % inhibition at 100nM
T22 construct: purchased DiscoverX

[24] = target: T23, EPHA6 (Homo sapiens, UniProt Q9UF33); assay: Proqinase Kinase profiling; type: biochemical; details: read-out: % inhibition at 100nM
T23 construct: purchased DiscoverX

T3 sequence (Q8TD19 whole entry): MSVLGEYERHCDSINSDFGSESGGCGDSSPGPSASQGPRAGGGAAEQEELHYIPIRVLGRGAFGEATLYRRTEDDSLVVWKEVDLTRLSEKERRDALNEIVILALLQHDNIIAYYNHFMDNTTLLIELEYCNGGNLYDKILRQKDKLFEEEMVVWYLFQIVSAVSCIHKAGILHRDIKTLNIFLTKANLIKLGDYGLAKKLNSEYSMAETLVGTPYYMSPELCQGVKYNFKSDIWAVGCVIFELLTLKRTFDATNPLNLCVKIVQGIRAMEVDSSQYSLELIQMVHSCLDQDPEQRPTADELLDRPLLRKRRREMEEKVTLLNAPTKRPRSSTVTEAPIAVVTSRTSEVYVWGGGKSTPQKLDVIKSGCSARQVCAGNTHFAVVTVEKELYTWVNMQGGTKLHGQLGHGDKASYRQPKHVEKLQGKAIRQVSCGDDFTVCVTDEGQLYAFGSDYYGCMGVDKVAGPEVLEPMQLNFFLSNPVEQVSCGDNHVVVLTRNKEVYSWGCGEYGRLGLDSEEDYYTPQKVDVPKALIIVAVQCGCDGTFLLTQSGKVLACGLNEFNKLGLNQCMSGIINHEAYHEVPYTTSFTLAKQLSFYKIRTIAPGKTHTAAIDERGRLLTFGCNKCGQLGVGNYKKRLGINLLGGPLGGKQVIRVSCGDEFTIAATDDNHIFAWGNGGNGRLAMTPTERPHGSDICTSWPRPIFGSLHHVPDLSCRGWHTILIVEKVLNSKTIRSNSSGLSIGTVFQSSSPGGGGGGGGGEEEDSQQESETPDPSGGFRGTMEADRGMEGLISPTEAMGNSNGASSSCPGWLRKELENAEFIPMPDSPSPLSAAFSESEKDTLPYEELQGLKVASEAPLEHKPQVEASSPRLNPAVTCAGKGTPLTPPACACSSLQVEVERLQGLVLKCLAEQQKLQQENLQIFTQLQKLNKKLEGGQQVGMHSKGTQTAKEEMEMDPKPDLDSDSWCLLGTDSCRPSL
T2 sequence (P11802 whole entry): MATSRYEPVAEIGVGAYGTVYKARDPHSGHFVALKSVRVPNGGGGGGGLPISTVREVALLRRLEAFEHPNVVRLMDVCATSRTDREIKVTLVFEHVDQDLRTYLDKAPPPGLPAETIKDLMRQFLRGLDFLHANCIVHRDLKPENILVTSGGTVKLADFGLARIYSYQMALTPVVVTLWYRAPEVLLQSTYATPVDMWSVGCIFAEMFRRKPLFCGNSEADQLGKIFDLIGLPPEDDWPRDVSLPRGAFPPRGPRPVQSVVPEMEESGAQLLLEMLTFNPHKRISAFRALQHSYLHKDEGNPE
T2 sequence (P24385 whole entry partner): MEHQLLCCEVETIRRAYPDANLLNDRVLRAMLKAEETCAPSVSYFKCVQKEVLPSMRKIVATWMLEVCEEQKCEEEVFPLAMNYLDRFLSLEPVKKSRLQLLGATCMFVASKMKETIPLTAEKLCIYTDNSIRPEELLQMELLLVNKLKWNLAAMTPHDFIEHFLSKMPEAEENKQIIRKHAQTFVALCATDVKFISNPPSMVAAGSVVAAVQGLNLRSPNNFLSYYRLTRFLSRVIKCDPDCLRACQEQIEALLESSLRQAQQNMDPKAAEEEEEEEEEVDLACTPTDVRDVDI
T1 sequence (P37023 22-503 Q201D): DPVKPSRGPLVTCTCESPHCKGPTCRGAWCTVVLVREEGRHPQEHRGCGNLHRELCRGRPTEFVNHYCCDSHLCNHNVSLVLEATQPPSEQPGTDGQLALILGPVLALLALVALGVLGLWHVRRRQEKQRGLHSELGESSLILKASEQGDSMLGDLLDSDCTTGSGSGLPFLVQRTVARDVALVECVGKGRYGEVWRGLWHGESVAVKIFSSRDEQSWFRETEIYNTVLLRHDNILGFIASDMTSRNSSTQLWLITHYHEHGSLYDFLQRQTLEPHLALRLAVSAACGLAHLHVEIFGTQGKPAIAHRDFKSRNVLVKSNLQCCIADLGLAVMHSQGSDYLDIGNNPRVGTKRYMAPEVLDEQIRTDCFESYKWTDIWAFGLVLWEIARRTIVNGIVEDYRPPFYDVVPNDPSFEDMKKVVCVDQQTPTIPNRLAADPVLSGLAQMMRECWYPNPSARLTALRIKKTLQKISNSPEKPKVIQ
T22 sequence (Q99640 whole entry): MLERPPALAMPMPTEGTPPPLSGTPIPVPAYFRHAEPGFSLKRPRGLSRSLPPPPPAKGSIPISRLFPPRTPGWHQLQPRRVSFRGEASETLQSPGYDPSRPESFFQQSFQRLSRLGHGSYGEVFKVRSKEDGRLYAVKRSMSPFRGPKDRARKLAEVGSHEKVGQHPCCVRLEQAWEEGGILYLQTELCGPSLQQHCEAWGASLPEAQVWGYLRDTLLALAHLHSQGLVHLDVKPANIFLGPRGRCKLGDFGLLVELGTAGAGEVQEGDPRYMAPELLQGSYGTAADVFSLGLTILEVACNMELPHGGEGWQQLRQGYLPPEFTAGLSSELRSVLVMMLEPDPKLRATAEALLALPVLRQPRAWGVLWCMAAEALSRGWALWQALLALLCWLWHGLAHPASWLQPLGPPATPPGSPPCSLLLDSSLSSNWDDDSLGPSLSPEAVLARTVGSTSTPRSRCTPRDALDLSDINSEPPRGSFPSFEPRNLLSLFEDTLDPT
T18 sequence (Q5TCX8 whole entry): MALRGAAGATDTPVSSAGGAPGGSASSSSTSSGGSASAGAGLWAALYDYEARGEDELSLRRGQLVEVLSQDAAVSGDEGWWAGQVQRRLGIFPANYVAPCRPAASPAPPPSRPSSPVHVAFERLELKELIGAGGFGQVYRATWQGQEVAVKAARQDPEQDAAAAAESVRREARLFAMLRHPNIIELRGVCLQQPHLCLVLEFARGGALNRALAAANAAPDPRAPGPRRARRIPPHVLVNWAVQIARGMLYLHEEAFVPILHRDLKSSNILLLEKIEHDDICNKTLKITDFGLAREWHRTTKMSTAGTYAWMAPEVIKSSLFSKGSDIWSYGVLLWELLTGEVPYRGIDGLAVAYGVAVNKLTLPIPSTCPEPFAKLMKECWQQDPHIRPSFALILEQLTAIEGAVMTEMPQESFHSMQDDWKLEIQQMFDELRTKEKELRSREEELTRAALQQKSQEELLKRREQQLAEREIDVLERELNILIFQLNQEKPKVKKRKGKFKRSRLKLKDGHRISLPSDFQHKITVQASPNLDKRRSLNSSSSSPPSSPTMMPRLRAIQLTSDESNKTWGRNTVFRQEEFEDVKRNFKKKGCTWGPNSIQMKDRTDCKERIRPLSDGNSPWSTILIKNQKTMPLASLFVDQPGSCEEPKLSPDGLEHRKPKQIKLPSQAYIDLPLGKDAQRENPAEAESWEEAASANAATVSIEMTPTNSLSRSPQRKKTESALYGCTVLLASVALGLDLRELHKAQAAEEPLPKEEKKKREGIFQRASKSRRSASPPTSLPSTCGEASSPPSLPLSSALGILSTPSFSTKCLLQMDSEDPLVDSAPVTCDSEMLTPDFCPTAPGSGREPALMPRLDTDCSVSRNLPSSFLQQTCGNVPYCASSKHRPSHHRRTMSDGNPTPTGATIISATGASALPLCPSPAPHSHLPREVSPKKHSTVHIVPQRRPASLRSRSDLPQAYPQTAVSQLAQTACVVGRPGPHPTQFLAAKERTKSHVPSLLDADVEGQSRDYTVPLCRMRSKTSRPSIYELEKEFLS
T20 sequence (Q5TCY1 whole entry): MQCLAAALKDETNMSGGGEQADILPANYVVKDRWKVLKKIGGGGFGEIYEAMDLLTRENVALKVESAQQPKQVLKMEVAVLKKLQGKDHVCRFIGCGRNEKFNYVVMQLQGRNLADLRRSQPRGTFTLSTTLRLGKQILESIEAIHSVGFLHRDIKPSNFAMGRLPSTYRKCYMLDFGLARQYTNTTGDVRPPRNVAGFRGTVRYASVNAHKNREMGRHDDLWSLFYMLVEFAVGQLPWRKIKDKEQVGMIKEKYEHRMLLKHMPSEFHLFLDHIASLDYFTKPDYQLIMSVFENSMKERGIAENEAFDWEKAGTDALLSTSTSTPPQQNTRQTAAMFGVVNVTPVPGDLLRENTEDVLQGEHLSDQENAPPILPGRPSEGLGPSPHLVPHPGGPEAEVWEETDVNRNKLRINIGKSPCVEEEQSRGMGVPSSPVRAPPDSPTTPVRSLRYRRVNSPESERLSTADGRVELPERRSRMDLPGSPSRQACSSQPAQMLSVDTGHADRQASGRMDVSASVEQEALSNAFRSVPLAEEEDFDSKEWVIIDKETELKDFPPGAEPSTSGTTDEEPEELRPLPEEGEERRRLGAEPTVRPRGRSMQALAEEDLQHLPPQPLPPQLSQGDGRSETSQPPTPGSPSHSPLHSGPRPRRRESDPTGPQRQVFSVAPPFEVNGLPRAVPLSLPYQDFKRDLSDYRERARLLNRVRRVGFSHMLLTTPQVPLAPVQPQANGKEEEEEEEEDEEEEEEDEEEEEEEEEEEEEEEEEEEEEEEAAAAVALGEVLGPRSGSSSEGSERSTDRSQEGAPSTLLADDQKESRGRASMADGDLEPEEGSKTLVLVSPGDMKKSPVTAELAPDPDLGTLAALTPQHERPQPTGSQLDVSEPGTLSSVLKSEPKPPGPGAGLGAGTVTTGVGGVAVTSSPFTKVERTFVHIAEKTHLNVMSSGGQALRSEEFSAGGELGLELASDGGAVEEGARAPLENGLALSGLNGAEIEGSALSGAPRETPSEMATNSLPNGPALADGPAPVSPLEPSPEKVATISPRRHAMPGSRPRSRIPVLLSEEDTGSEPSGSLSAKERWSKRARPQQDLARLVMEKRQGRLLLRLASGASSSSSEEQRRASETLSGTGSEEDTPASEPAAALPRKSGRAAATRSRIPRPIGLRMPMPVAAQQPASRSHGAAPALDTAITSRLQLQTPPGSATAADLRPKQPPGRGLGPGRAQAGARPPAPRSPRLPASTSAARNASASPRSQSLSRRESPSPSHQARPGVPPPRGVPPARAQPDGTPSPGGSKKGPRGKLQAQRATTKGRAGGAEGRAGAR

What does the source list for `c1ccc2c(-c3cnn4cc(-c5ccc(N6CCNCC6)cc5)cnc34)ccnc2c1` [LDN-193189, reference compound]?
Inhibition of caALK6-driven BRE-LUC activity [1]: significantly inhibited; Inhibition of caALK1-driven BRE-LUC activity [2]: significantly inhibited

`Clc1cc2cc(c1)-c1cnn3ccc(nc13)NCCOCCO2` [OD36] was tested. Which inhibition at 0.1 µM [3] did it give?
Its inhibition at 0.1 µM is 8%.

And the inhibition at 0.1 µM [4]?
Its inhibition at 0.1 µM is 1%.

Which results are given for `Cc1cc2cc(c1)-c1cnn3ccc(nc13)NCCNC(=O)CCN(C)C2` [OD52]?
inhibition at 0.1 µM [5]: -5%; inhibition at 0.1 µM [6]: 10%; inhibition at 0.1 µM [7]: 15%; inhibition at 0.1 µM [8]: -9%; inhibition at 0.1 µM [9]: -13%; inhibition at 0.1 µM [10]: 4%; inhibition at 0.1 µM [11]: 33%; inhibition at 0.1 µM [12]: 6%; inhibition at 0.1 µM [13]: 16%; inhibition at 0.1 µM [14]: 6%; inhibition at 0.1 µM [15]: -10%; inhibition at 0.1 µM [16]: -16%; inhibition at 0.1 µM [17]: -7%; inhibition at 0.1 µM [3]: -9%; inhibition at 0.1 µM [18]: 4%; inhibition at 0.1 µM [19]: -11%; inhibition at 0.1 µM [20]: -2%; inhibition at 0.1 µM [21]: 8%; inhibition at 0.1 µM [22]: 17%; inhibition at 0.1 µM [4]: -1%; inhibition at 0.1 µM [23]: 6%; inhibition at 0.1 µM [24]: -12%
